Test results as given in patent US6818654B2, “Antibacterial compounds” (Abbott Laboratories, priority 2002, dated 2004).
pIC50: −log10 of the molar value. ≈ marks a conversion by molar mass, not a printed value.

Legend:
[1] = target: bacterial protein synthesis; assay: Translation assay, firefly luciferase reporter system with S30 Streptococcus pneumoniae extract; type: biochemical; conditions: S30 extract from quinoline-succeptable Streptococcus pneumoniae ATCC 46919; luciferase mRNA; read-out: IC50, concentration causing 50% inhibition of bacterial protein synthesis
Procedure: Bacterial protein synthesis inhibitory activity of the compounds and the aformentioned commercially-available antibacterials was determined by translation assays performed using the firefly luciferase reporter system described by Murray et al., (2001), “Staphylococcus aureus Cell Extract Transcription-Translation Assay: Firefly Luciferase Reporter System for Evaluating Protein Translation Inhibitors,” Antimicrob. Agents Chemother. 45(6): 1900-1904, replacing the Staphylococcus aureus S30 extract described therein with S30 Streptococcus pneumoniae extract from quinoline-succeptable Streptococcus pneumoniae ATCC 46919, and replacing plasmid coding for the luciferase gene with mRNA (encoding produced by in vitro transcription from the plasmid pAS10rbs3) which encoded the luciferase gene with an upstream Streptococcus pneumoniae promoter and Shine-Dalgarno site.

[2] = test system: Quinoline-Resistant Streptococcus pneumoniae 7257; assay: MIC, agar dilution, quinoline-resistant strain (code BB); type: cell-based; conditions: 35-37° C., 20-24 hours
[3] = test system: Quinoline-Succeptable Streptococcus pneumoniae ATCC 6303; assay: MIC, agar dilution, quinoline-susceptible strain (code AA); type: cell-based; conditions: ATCC6303, 35-37° C., 20-24 hours
From the text: Antibacterial activity of the compounds […] Committee for Clinical Laboratory Standards (1997), “Methods for dilution antimicrobial susceptibility tests for bacteria that grow aerobically,” approved standard M7-A4 (Wayne, Pa., USA). All strains tested were from the Abbott Laboratories culture collection and were either clinical isolates or reference strains obtained from the American Type Culture Collection (Manassas, Va., USA).

Row | MIC [2] [µg/mL] | MIC [3] [µg/mL] | SMILES | pIC50 [1]
1 | 32 (≈ 100 µM) | 1 (≈ 3.13 µM) | CCn1cc(C(=O)O)c(=O)c2cc(F)c(N3CCNCC3)cc21 [Norfloxacin] | –
2 | 4 (≈ 9.61 µM) | 0.06 (≈ 0.144 µM) | N[C@@H]1[C@H]2CN(c3nc4c(cc3F)c(=O)c(C(=O)O)cn4-c3ccc(F)cc3F)C[C@@H]12 [Trovafloxacin] | –

Row | SMILES | MIC [2] [µg/mL] | MIC [3] [µg/mL] | pIC50 [1]
3 | CC(=O)NC[C@H]1CN(c2ccc(N3CCOCC3)c(F)c2)C(=O)O1 [Linezolid] | 0.5 (≈ 1.48 µM) | 2 (≈ 5.93 µM) | ~5.52
